According to ChEMBL document CHEMBL2331430, “Absolute configuration and conformational analysis of brevipolides, bioactive 5,6-dihydro-α-pyrones from Hyptis brevipes” (J Nat Prod, 2013):
≈ marks a conversion by molar mass, not a printed value.

What was measured:
[1] = tested on: Hep-2 (human laryngeal carcinoma); assay: Cytotoxicity against human Hep-2 cells after 72 hrs by SRB assay; conditions: Hep-2, 72 h, read-out: ED50 (the source's name)
MCF7 = assay: Cytotoxicity against human MCF7 cells after 72 hrs by SRB assay; conditions: MCF7, 72 h, read-out: ED50 (the source's name)
KB = assay: Cytotoxicity against human KB cells after 72 hrs by SRB assay
PC-3 = assay: Cytotoxicity against human PC3 cells after 72 hrs by SRB assay; conditions: PC-3, 72 h, read-out: ED50 (the source's name)
HeLa = assay: Cytotoxicity against human HeLa cells after 72 hrs by SRB assay; conditions: read-out: ED50 (the source's name)
HCT-15 = assay: Cytotoxicity against human HCT15 cells after 72 hrs by SRB assay; conditions: HCT-15, 72 h, read-out: ED50 (the source's name)

**Q.** With `C[C@H](OC(=O)/C=C/c1ccc(O)cc1)C(=O)[C@H]1C[C@@H]1[C@H](O)[C@H]1CC=CC(=O)O1` [BREVIPOLIDE G] as the compound, how does the EC50 [1] read?
**A.** 0.3 µg/mL (≈ 0.776 µM)

**Q.** And the EC50 (MCF7)?
**A.** 0.3 µg/mL (≈ 0.776 µM)

**Q.** And the IC50 (KB)?
**A.** 0.3 µg/mL (≈ 0.776 µM)

**Q.** And the EC50 (PC-3)?
**A.** 0.3 µg/mL (≈ 0.776 µM)

**Q.** And the EC50 (HeLa)?
**A.** 0.3 µg/mL (≈ 0.776 µM)

**Q.** What about the EC50 (HCT-15) of the same compound?
**A.** 0.3 µg/mL (≈ 0.776 µM)

**Q.** `COc1ccc(/C=C/C(=O)O[C@@H](C)C(=O)[C@H]2C[C@@H]2[C@H](O)[C@H]2CC=CC(=O)O2)cc1` [BREVIPOLIDE H] was tested. Which EC50 [1] did it give?
**A.** 0.3 µg/mL (≈ 0.749 µM)

**Q.** And the EC50 (MCF7)?
**A.** 0.3 µg/mL (≈ 0.749 µM)

**Q.** And the IC50 (KB)?
**A.** 2 µg/mL (≈ 4.99 µM)

**Q.** What about the EC50 (PC-3) of the same compound?
**A.** 0.3 µg/mL (≈ 0.749 µM)

**Q.** What about the EC50 (HeLa) of the same compound?
**A.** 0.3 µg/mL (≈ 0.749 µM)

**Q.** What about the EC50 (HCT-15) of the same compound?
**A.** 0.3 µg/mL (≈ 0.749 µM)

**Q.** How did the EC50 [1] turn out when `COc1ccc(/C=C\C(=O)O[C@@H](C)C(=O)[C@H]2C[C@@H]2[C@H](O)[C@H]2CC=CC(=O)O2)cc1` [BREVIPOLIDE I] was run?
**A.** 0.3 µg/mL (≈ 0.749 µM)

**Q.** What about the EC50 (MCF7) of the same compound?
**A.** 0.3 µg/mL (≈ 0.749 µM)

**Q.** What about the IC50 (KB) of the same compound?
**A.** 1.9 µg/mL (≈ 4.74 µM)

**Q.** And the EC50 (PC-3)?
**A.** 0.3 µg/mL (≈ 0.749 µM)

**Q.** And the EC50 (HeLa)?
**A.** 0.3 µg/mL (≈ 0.749 µM)

**Q.** What about the EC50 (HCT-15) of the same compound?
**A.** 0.3 µg/mL (≈ 0.749 µM)

**Q.** What does the source list for `COc1ccc(/C=C/C(=O)O[C@@H](C)C(=O)[C@H]2C[C@@H]2[C@H](O)[C@H]2CC=CC(=O)O2)cc1O` [BREVIPOLIDE J]?
**A.** EC50 [1]: 0.3 µg/mL (≈ 0.72 µM); EC50 (MCF7): 0.3 µg/mL (≈ 0.72 µM); IC50 (KB): 1.2 µg/mL (≈ 2.88 µM); EC50 (PC-3): 0.3 µg/mL (≈ 0.72 µM); EC50 (HeLa): 0.3 µg/mL (≈ 0.72 µM); EC50 (HCT-15): 0.3 µg/mL (≈ 0.72 µM)
